Reference: US11064701B2, “Benzoxaborole compounds” (BASF SE, priority 2016, dated 2021)

Columns and labels:
Experiment in all cases: greenhouse post-emergence herbicidal test
Assay type in all cases: in vivo
Details in all cases: application rate 2 kg/ha, post-emergence method; scale 0 to 100 (100 = complete destruction)
Echinocloa crus-galli = system: Echinocloa crus-galli
Excerpt: (§1) The seeds of the test plants were sown separately for each species. For the post-emergence treatment, the test plants were first grown to a height of 3 to 8 cm, depending on the plant habit, and only then treated with the active ingredients which had been suspended or emulsified in water. For this purpose, the test plants were either sown directly and grown in the same containers, or they were first grown separately as seedlings and transplanted into the test containers a few days prior to treatment. Depending on the species, the plants were kept at 10-25° C. or 20-35° C., respectively. The test period extended over 2 to 4 weeks. During this time, the plants were tended, and their response to the individual treatments was evaluated. Evaluation was carried out using a scale from 0 to 100. 100 means no emergence of the plants, or complete destruction of at least the aerial moieties, and 0 means no damage, or normal course of growth. A moderate herbicidal activity is given at values of at least 60, a good herbicidal activity is given at values of at least 70, and a very good herbicidal activity is given at values of at least 85. The plants used in the greenhouse experiments were of the following species: [table]

Amaranthus retroflexus = system: Amaranthus retroflexus
Excerpt: as §1

Abutilon theophrasti = system: Abutilon theophrasti
Excerpt: as §1

Setaria viridis = system: Setaria viridis
Excerpt: as §1

Avena fatua = system: Avena fatua
Excerpt: as §1

Alopecurus myosuroides = system: Alopecurus myosuroides
Excerpt: as §1

Compound | herbicidal activity against Echinocloa crus-galli (Echinocloa crus-galli) [%] | herbicidal activity against Amaranthus retroflexus (Amaranthus retroflexus) [%] | herbicidal activity against Abutilon theophrasti (Abutilon theophrasti) [%] | herbicidal activity against Setaria viridis (Setaria viridis) [%] | herbicidal activity against Avena fatua (Avena fatua) [%] | herbicidal activity against Alopecurus myosuroides (Alopecurus myosuroides) [%]
O=C(O)COc1ccc2c(c1)B(O)OC2 [I-1] | 100 | 100 | 90 | 100 | 90 | 
CCOC(=O)C(C)(C)Oc1ccc2c(c1)B(O)OC2 [I-2] |  | 100 |  |  |  | 
COC(=O)COc1ccc2c(c1)B(O)OC2 [I-3] | 98 | 100 | 100 | 100 | 90 | 
CC(C)(Oc1ccc2c(c1)B(O)OC2)C(=O)O [I-4] | 85 |  | 85 |  |  | 
COC(=O)COc1cc2c(cc1F)COB2O [I-5] | 98 | 100 | 100 | 98 | 98 | 98
O=C(O)COc1cc2c(cc1F)COB2O [I-6] | 98 | 100 | 100 | 100 | 98 | 90
COC(=O)COc1cc2c(cc1Cl)COB2O [I-7] | 100 | 100 | 100 | 100 | 98 | 95
O=C(O)COc1cc2c(cc1Cl)COB2O [I-8] | 100 | 100 | 100 | 95 | 98 | 98
COC(=O)C(Oc1cc2c(cc1F)COB2O)C(=O)OC [I-10] |  | 90 |  | 95 |  | 
O=C(O)COc1c(Cl)cc2c(c1Cl)B(O)OC2 [I-15] | 85 | 100 |  | 90 |  | 
O=C(O)CSc1cc2c(cc1F)COB2O [I-22] |  | 100 | 100 | 100 |  | 
O=C(O)COc1c(F)cc2c(c1F)B(O)OC2 [I-24] |  | 100 | 100 | 95 |  | 
O=C(O)CCCOc1cc2c(cc1F)COB2O [I-25] |  | 95 |  | 95 |  | 
CCOC(=O)C(F)Oc1ccc2c(c1)B(O)OC2 (stereo not shown) [I-26] |  | 100 | 90 | 85 |  | 
COC(=O)CSc1cc2c(cc1F)COB2O [I-28] |  | 100 | 100 | 100 |  | 
COC(=O)COc1c(F)cc2c(c1F)B(O)OC2 [I-29] | 95 | 100 |  | 100 |  | 
CC(Oc1c(F)cc2c(c1F)B(O)OC2)C(=O)O (stereo not shown) [I-30] |  | 100 | 95 |  |  | 85
O=C(O)COc1c(F)c(F)c2c(c1F)B(O)OC2 [I-33] |  | 100 | 98 | 98 |  | 
COC(=O)C(C)Oc1c(F)cc2c(c1F)B(O)OC2 (stereo not shown) [I-35] |  | 100 | 100 | 98 |  | 
O=C(O)CS(=O)(=O)c1cc2c(cc1F)COB2O [I-37] |  | 100 |  |  |  | 
COC(=O)COc1c(F)c(F)c2c(c1F)B(O)OC2 [I-39] |  | 100 |  | 100 |  | 
COC(=O)CS(=O)(=O)c1cc2c(cc1F)COB2O [I-42] |  | 100 | 100 |  |  | 
